# Assay results reported in patent US10538535B2, “Antitumoral compounds” (priority 2017, dated 2020).
# Where two headings read alike, the source gives them in different places.
# What was measured:
# H82 tumors = test: In vivo xenograft, human lung (SCLC) H82
# [1] = MTD (Maximum Tolerated Dose) determination, single iv administration; assay type: in vivo; conditions: female, mouse, in vivo; mice; iv/SD
# From the text: Female CD-1 or Athymic Nude-Fox1 nu/nu mice (Envigo) were utilized for all experiments. […] Animals were acclimated for five days prior to being individually tattoo-identified. Animal protocols were reviewed and approved according to the regional Institutional Animal Care and Use Committees.
# Mice were randomly allocated into experimental groups and intravenously administered, once for the MTD (Maximum Tolerated Dose) determination or one administration a week during three consecutive weeks, for the MTMD (Maximum Tolerated Multiple Dose) determination study. The animals were administered with white formulation or with compound dissolved in the experimental formulation at different concentrations. The volume administered was always 10 mL/kg. Once administered, animals were monitored for clinical signs of systemic toxicity, changes in body weight and mortality up to 14 days after the administration.
# Description for H460 tumors: (§1) Female athymic nu/nu mice (Harlan Laboratories Models, S. L. Barcelona, Spain or Envigo, Spain) were utilized for all experiments. Animal were housed in individually ventilated cages Sealsafe® Plus, Techniplast S.P.A.), up to ten per cage on a 12-hour light-dark cycle at 21-23° C. and 40-60% humidity. […] Animals were acclimated for at least 5 days prior to tumor implantation with a tumor cell suspension.
# H460 cells were maintained in vitro at 37° C. with 5% CO2 in Dulbecco's Modified Eagle's Medium (Sigma-Aldrich, Co). Culture cells were passaged every 3 to 5 days upon reaching confluence. Each animal was subcutaneously implanted (on the right flank using 26 G needle and a 1 cc syringe) at 4-6 weeks of age with 5×10^6 H460 cells suspended in 0.05 mL of a solution consisting of 50% Matrigel® (Corning Incorporated Life Sciences) and 50% medium without serum or antibiotics.
# (§2) Treatment tolerability was assessed by monitoring body weight evolution, clinical signs of systemic toxicity, as well as evidences of local damage in the injection site.
# (§3) Treatments producing >20% lethality and/or 20% net body weight loss were considered toxic.
# Description for MDA-MB-231 tumors: as §1
# MDA-MB-231 cells were maintained in vitro at 37° C. with 5% CO2 in Dulbecco's Modified Eagle's Medium (Sigma-Aldrich, Co). Culture cells were passaged every 3 to 5 days upon reaching confluence.
# as §2
# In xenograft studies with other cell lines: • Tumor volume was calculated using the equation (a·b^2)/2, where a: length (longest diameter) and b: width (shortest diameter) were measured in mm by using digital caliper (Fowler Sylvac, S235PAT).
# as §3
smiles,measurement,setting,value
COc1c(C)cc2c(c1O)[C@@H]1[C@@H]3[C@@H]4SC[C@]5(N[C@@H](C)Cc6c5[nH]c5ccccc65)C(=O)OC[C@@H](c5c6c(c(C)c(OC(C)=O)c54)OCO6)N3[C@@H](O)[C@H](C2)N1C [D],Median Tumor Volume,"MDA-MB-231 tumors; Table 22, Day 0, iv Days 0, 7, 14",129.5 mm^3
same,Median Tumor Volume,"MDA-MB-231 tumors; Table 22, Day 7, iv Days 0, 7, 14",147.9 mm^3
same,Median Tumor Volume,"MDA-MB-231 tumors; Table 22, Day 14, iv Days 0, 7, 14",186.4 mm^3
same,Median Tumor Volume,"MDA-MB-231 tumors; Table 22, Day 21, iv Days 0, 7, 14",136.5 mm^3
same,Median Tumor Volume,"MDA-MB-231 tumors; Table 22, Day 28, iv Days 0, 7, 14",290.7 mm^3
same,Median Tumor Volume,"MDA-MB-231 tumors; Table 22, Day 35, iv Days 0, 7, 14",431.7 mm^3
same,Median Tumor Volume,"MDA-MB-231 tumors; Table 22, Day 42, iv Days 0, 7, 14",770.1 mm^3
same,Median Tumor Volume,"MDA-MB-231 tumors; Table 22, Day 49, iv Days 0, 7, 14",970.0 mm^3
same,Median Tumor Volume,"MDA-MB-231 tumors; Table 22, Day 56, iv Days 0, 7, 14",1461.9 mm^3
same,Median Tumor Volume,"MDA-MB-231 tumors; Table 22, Day 63, iv Days 0, 7, 14",1526.4 mm^3
same,Median Tumor Volume,"MDA-MB-231 tumors; iv, 0.5 mg/kg, 0 h",149.6 mm^3
same,Median Tumor Volume,"MDA-MB-231 tumors; iv, 0.5 mg/kg, 48 h",217.2 mm^3
same,Median Tumor Volume,"MDA-MB-231 tumors; iv, 0.5 mg/kg, 120 h",284.5 mm^3
same,Median Tumor Volume,"MDA-MB-231 tumors; iv, 0.5 mg/kg, 168 h",310.0 mm^3
same,Median Tumor Volume,"MDA-MB-231 tumors; iv, 0.5 mg/kg, 336 h",237.7 mm^3
same,Median Tumor Volume,"MDA-MB-231 tumors; iv, 0.5 mg/kg, 384 h",261.2 mm^3
same,Median Tumor Volume,"MDA-MB-231 tumors; iv, 0.5 mg/kg, 456 h",251.3 mm^3
same,Median Tumor Volume,"MDA-MB-231 tumors; iv, 0.5 mg/kg, 504 h",219.9 mm^3
same,Median Tumor Volume,"MDA-MB-231 tumors; iv, 0.5 mg/kg, 552 h",221.8 mm^3
same,Median Tumor Volume,"MDA-MB-231 tumors; iv, 0.5 mg/kg, 672 h",320.3 mm^3
same,Median Tumor Volume,"MDA-MB-231 tumors; iv, 0.5 mg/kg, 720 h",401.6 mm^3
same,Median Tumor Volume,"MDA-MB-231 tumors; iv, 0.5 mg/kg, 840 h",629.2 mm^3
same,Median Tumor Volume,"MDA-MB-231 tumors; iv, 0.5 mg/kg, 888 h",670.7 mm^3
same,Median Tumor Volume,"MDA-MB-231 tumors; iv, 0.5 mg/kg, 960 h",669.9 mm^3
same,Median Tumor Volume,"MDA-MB-231 tumors; iv, 0.5 mg/kg, 1056 h",798.1 mm^3
same,Median Tumor Volume,"MDA-MB-231 tumors; iv, 0.5 mg/kg, 1128 h",857.7 mm^3
same,Median Tumor Volume,"MDA-MB-231 tumors; iv, 0.5 mg/kg, 1176 h",870.7 mm^3
same,Median Tumor Volume,"MDA-MB-231 tumors; iv, 0.5 mg/kg, 1224 h",925.8 mm^3
same,Median Tumor Volume,"MDA-MB-231 tumors; iv, 0.5 mg/kg, 1296 h",1005.4 mm^3
same,Median Tumor Volume,"MDA-MB-231 tumors; iv, 0.5 mg/kg, 1344 h",1064.2 mm^3
same,Median Tumor Volume,"MDA-MB-231 tumors; iv, 0.5 mg/kg, 1392 h",1235.6 mm^3
same,Median Tumor Volume,"MDA-MB-231 tumors; iv, 0.5 mg/kg, 1464 h",1367.8 mm^3
same,Median Tumor Volume,"MDA-MB-231 tumors; iv, 0.5 mg/kg, 1512 h",1553.7 mm^3
same,Median Tumor Volume,"H460 tumors; Table 24, Day 0, iv Days 0, 7, 14",203.4 mm^3
same,Median Tumor Volume,"H460 tumors; Table 24, Day 2, iv Days 0, 7, 14",367.3 mm^3
same,Median Tumor Volume,"H460 tumors; Table 24, Day 7, iv Days 0, 7, 14",792.0 mm^3
same,Median Tumor Volume,"H460 tumors; Table 24, Day 9, iv Days 0, 7, 14",854.6 mm^3
same,Median Tumor Volume,"H460 tumors; Table 24, Day 12, iv Days 0, 7, 14",1026.7 mm^3
same,Median Tumor Volume,"H460 tumors; Table 24, Day 14, iv Days 0, 7, 14",1175.8 mm^3
same,Median Tumor Volume,"H460 tumors; Table 24, Day 16, iv Days 0, 7, 14",1322.1 mm^3
same,Median Tumor Volume,"H460 tumors; Table 24, Day 19, iv Days 0, 7, 14",1581.1 mm^3
same,Median Tumor Volume,"H460 tumors; Table 24, Day 21, iv Days 0, 7, 14",1789.3 mm^3
same,Median Tumor Volume,"H460 tumors; Table 24, Day 23, iv Days 0, 7, 14",1966.5 mm^3
same,Median Tumor Volume,"H460 tumors; Table 24, Day 26, iv Days 0, 7, 14",2080.7 mm^3
same,Median Tumor Volume,"H460 tumors; iv, 0.5 mg/kg, 0 h",187.2 mm^3
same,Median Tumor Volume,"H460 tumors; iv, 0.5 mg/kg, 48 h",329.7 mm^3
same,Median Tumor Volume,"H460 tumors; iv, 0.5 mg/kg, 120 h",559.4 mm^3
same,Median Tumor Volume,"H460 tumors; iv, 0.5 mg/kg, 168 h",756.5 mm^3
same,Median Tumor Volume,"H460 tumors; iv, 0.5 mg/kg, 336 h",1626.8 mm^3
same,Median Tumor Volume,"H460 tumors; iv, 0.5 mg/kg, 384 h",2025.0 mm^3
same,Median Tumor Volume,"H82 tumors; Table 33, Day 0.0, iv Days 0, 7, 14, 12-R 0.05 mg/kg, Compound D 0.5 mg/kg",169.4 mm^3
same,Median Tumor Volume,"H82 tumors; Table 33, Day 2.0, iv Days 0, 7, 14, 12-R 0.05 mg/kg, Compound D 0.5 mg/kg",340.6 mm^3
same,Median Tumor Volume,"H82 tumors; Table 33, Day 5.0, iv Days 0, 7, 14, 12-R 0.05 mg/kg, Compound D 0.5 mg/kg",443.3 mm^3
same,Median Tumor Volume,"H82 tumors; Table 33, Day 7.0, iv Days 0, 7, 14, 12-R 0.05 mg/kg, Compound D 0.5 mg/kg",496.2 mm^3
same,Median Tumor Volume,"H82 tumors; Table 33, Day 9.0, iv Days 0, 7, 14, 12-R 0.05 mg/kg, Compound D 0.5 mg/kg",614.1 mm^3
same,Median Tumor Volume,"H82 tumors; Table 33, Day 12.0, iv Days 0, 7, 14, 12-R 0.05 mg/kg, Compound D 0.5 mg/kg",665.5 mm^3
same,Median Tumor Volume,"H82 tumors; Table 33, Day 14.0, iv Days 0, 7, 14, 12-R 0.05 mg/kg, Compound D 0.5 mg/kg",1041.6 mm^3
same,Median Tumor Volume,"H82 tumors; Table 33, Day 16.0, iv Days 0, 7, 14, 12-R 0.05 mg/kg, Compound D 0.5 mg/kg",1151.2 mm^3
same,Median Tumor Volume,"H82 tumors; Table 33, Day 19.0, iv Days 0, 7, 14, 12-R 0.05 mg/kg, Compound D 0.5 mg/kg",1516.7 mm^3
same,Median Tumor Volume,"H82 tumors; Table 33, Day 21.0, iv Days 0, 7, 14, 12-R 0.05 mg/kg, Compound D 0.5 mg/kg",1748.0 mm^3
same,Median Tumor Volume,"H82 tumors; Table 57, Day 0, iv weekly, 47-R 0.1 mg/Kg, Compound D 0.5 mg/Kg",169.4 mm^3
same,Median Tumor Volume,"H82 tumors; Table 57, Day 2, iv weekly, 47-R 0.1 mg/Kg, Compound D 0.5 mg/Kg",340.6 mm^3
same,Median Tumor Volume,"H82 tumors; Table 57, Day 5, iv weekly, 47-R 0.1 mg/Kg, Compound D 0.5 mg/Kg",443.3 mm^3
same,Median Tumor Volume,"H82 tumors; Table 57, Day 7, iv weekly, 47-R 0.1 mg/Kg, Compound D 0.5 mg/Kg",496.2 mm^3
same,Median Tumor Volume,"H82 tumors; Table 57, Day 9, iv weekly, 47-R 0.1 mg/Kg, Compound D 0.5 mg/Kg",614.1 mm^3
same,Median Tumor Volume,"H82 tumors; Table 57, Day 12, iv weekly, 47-R 0.1 mg/Kg, Compound D 0.5 mg/Kg",665.5 mm^3
same,Median Tumor Volume,"H82 tumors; Table 57, Day 14, iv weekly, 47-R 0.1 mg/Kg, Compound D 0.5 mg/Kg",1041.6 mm^3
same,Median Tumor Volume,"H82 tumors; Table 57, Day 16, iv weekly, 47-R 0.1 mg/Kg, Compound D 0.5 mg/Kg",1151.2 mm^3
same,Median Tumor Volume,"H82 tumors; Table 57, Day 19, iv weekly, 47-R 0.1 mg/Kg, Compound D 0.5 mg/Kg",1516.7 mm^3
same,Median Tumor Volume,"H82 tumors; Table 57, Day 21, iv weekly, 47-R 0.1 mg/Kg, Compound D 0.5 mg/Kg",1748.0 mm^3
COc1c(C)cc2c(c1O)[C@@H]1[C@@H]3[C@@H]4SC[C@]5(N[C@H](C)Cc6c5[nH]c5ccccc65)C(=O)OC[C@@H](c5c6c(c(C)c(OC(C)=O)c54)OCO6)N3[C@@H](O)[C@H](C2)N1C [C],Median Tumor Volume,"MDA-MB-231 tumors; iv, 3 mg/kg, 0 h",149.4 mm^3
same,Median Tumor Volume,"MDA-MB-231 tumors; iv, 3 mg/kg, 48 h",217.1 mm^3
same,Median Tumor Volume,"MDA-MB-231 tumors; iv, 3 mg/kg, 120 h",281.3 mm^3
same,Median Tumor Volume,"MDA-MB-231 tumors; iv, 3 mg/kg, 168 h",338.6 mm^3
same,Median Tumor Volume,"MDA-MB-231 tumors; iv, 3 mg/kg, 336 h",436.9 mm^3
same,Median Tumor Volume,"MDA-MB-231 tumors; iv, 3 mg/kg, 384 h",585.7 mm^3
same,Median Tumor Volume,"MDA-MB-231 tumors; iv, 3 mg/kg, 456 h",774.7 mm^3
same,Median Tumor Volume,"MDA-MB-231 tumors; iv, 3 mg/kg, 504 h",965.9 mm^3
same,Median Tumor Volume,"MDA-MB-231 tumors; iv, 3 mg/kg, 552 h",1215.2 mm^3
same,Median Tumor Volume,"MDA-MB-231 tumors; iv, 3 mg/kg, 672 h",1785.3 mm^3
same,Median Tumor Volume,"MDA-MB-231 tumors; iv, 3 mg/kg, 720 h",2037.1 mm^3
same,Median Tumor Volume,"H460 tumors; iv, 3 mg/kg, 0 h",186.1 mm^3
same,Median Tumor Volume,"H460 tumors; iv, 3 mg/kg, 48 h",395.4 mm^3
same,Median Tumor Volume,"H460 tumors; iv, 3 mg/kg, 120 h",665.9 mm^3
same,Median Tumor Volume,"H460 tumors; iv, 3 mg/kg, 168 h",929.5 mm^3
same,Median Tumor Volume,"H460 tumors; iv, 3 mg/kg, 336 h",2025.0 mm^3
same,Median Tumor Volume,"H460 tumors; iv, 3 mg/kg, 384 h",2025.0 mm^3
same,MTD at 14 days,[1],3 mg/kg
same,Median Tumor Volume,"H82 tumors; Table 50, Day 0, iv weekly, 39-S […], C 3 mg/Kg",170.5 mm^3
same,Median Tumor Volume,"H82 tumors; Table 50, Day 2, iv weekly, 39-S […], C 3 mg/Kg",265.3 mm^3
same,Median Tumor Volume,"H82 tumors; Table 50, Day 5, iv weekly, 39-S […], C 3 mg/Kg",488.7 mm^3
same,Median Tumor Volume,"H82 tumors; Table 50, Day 7, iv weekly, 39-S […], C 3 mg/Kg",760.0 mm^3
same,Median Tumor Volume,"H82 tumors; Table 50, Day 9, iv weekly, 39-S […], C 3 mg/Kg",899.5 mm^3
same,Median Tumor Volume,"H82 tumors; Table 50, Day 12, iv weekly, 39-S […], C 3 mg/Kg",1038.5 mm^3
same,Median Tumor Volume,"H82 tumors; Table 50, Day 14, iv weekly, 39-S […], C 3 mg/Kg",1213.4 mm^3
same,Median Tumor Volume,"H82 tumors; Table 50, Day 16, iv weekly, 39-S […], C 3 mg/Kg",1256.4 mm^3
same,Median Tumor Volume,"H82 tumors; Table 50, Day 19, iv weekly, 39-S […], C 3 mg/Kg",1741.5 mm^3
same,Median Tumor Volume,"H82 tumors; Table 50, Day 21, iv weekly, 39-S […], C 3 mg/Kg",1878.8 mm^3
same,Median Tumor Volume,"H82 tumors; Table 50, Day 23, iv weekly, 39-S […], C 3 mg/Kg",2057.0 mm^3
